Assay results taken from paper PMC3202585, “Venom of Parasitoid, Pteromalus puparum, Suppresses Host, Pieris rapae, Immune Promotion by Decreasing Host C-Type Lectin Gene Expression” (PLoS ONE, 2011).

Target: T1, Pr-CTL (Pieris rapae, UniProt G5CJE6)
T1 construct: two tandem CRDs (residues 41-151 and 184-302)
T1 sequence (G5CJE6 20-313): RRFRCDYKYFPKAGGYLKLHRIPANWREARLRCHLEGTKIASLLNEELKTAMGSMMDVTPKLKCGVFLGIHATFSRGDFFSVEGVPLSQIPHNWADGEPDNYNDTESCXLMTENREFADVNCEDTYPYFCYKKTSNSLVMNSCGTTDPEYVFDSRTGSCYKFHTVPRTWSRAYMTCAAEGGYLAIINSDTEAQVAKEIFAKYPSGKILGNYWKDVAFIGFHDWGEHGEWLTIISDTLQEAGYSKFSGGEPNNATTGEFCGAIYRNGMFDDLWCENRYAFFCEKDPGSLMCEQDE
Assay: carbohydrate binding assay (data not shown)
Conditions: calcium-dependent, described as agglutination of carbohydrates

Structure (SMILES)	carbohydrate binding assay (data not shown)
OC[C@H]1OC(O)[C@H](O)[C@@H](O)[C@H]1O (some centres unmarked) [galactose]	agglutination of different kind of carbohydrates, such as mannose, galactose and peptidoglycan (data not shown)
OC[C@H]1OC(O)[C@@H](O)[C@@H](O)[C@@H]1O (some centres unmarked) [mannose]	recombinant Pr-CTL possesses the calcium-dependent agglutination of different kind of carbohydrates, such as mannose
